{
  "source": "patent US11780851B2",
  "about": "“LRRK2 inhibitors” (H. Lundbeck A/S, priority 2021, dated 2023)",
  "key": {"[1]": {"system": "panel of 403 wild type kinases", "experiment": "Broad kinase selectivity, Eurofins DiscoverX scanMAX panel", "type": "binding, primarily of human origin", "settings": "screening concentration 100 nM; for Number of Hits: 403 non-mutant kinases", "protocol": "Protein kinase profiling of the inhibitors (Fabian, M. A. et al. inhibitors. Nat. […] Selectivity Score or S-score is a quantitative measure of compound selectivity. It was calculated by dividing the number of kinases that compounds bind to by the total number of distinct kinases tested, excluding mutant variants. S=Number of hits/Number of assays. This value can be calculated using % Ctrl as a potency threshold (below) and provides a quantitative method of describing compound selectivity to facilitate comparison of different compounds."}, "LRRK2 G2019S": {"biological_target": "T1, LRRK2 G2019S (Homo sapiens, UniProt Q5S007, G2019S)", "T1 construct": "purchased Invitrogen (Life Technologies Corporation)", "T1 sequence (Q5S007 970-2527 G2019S)": "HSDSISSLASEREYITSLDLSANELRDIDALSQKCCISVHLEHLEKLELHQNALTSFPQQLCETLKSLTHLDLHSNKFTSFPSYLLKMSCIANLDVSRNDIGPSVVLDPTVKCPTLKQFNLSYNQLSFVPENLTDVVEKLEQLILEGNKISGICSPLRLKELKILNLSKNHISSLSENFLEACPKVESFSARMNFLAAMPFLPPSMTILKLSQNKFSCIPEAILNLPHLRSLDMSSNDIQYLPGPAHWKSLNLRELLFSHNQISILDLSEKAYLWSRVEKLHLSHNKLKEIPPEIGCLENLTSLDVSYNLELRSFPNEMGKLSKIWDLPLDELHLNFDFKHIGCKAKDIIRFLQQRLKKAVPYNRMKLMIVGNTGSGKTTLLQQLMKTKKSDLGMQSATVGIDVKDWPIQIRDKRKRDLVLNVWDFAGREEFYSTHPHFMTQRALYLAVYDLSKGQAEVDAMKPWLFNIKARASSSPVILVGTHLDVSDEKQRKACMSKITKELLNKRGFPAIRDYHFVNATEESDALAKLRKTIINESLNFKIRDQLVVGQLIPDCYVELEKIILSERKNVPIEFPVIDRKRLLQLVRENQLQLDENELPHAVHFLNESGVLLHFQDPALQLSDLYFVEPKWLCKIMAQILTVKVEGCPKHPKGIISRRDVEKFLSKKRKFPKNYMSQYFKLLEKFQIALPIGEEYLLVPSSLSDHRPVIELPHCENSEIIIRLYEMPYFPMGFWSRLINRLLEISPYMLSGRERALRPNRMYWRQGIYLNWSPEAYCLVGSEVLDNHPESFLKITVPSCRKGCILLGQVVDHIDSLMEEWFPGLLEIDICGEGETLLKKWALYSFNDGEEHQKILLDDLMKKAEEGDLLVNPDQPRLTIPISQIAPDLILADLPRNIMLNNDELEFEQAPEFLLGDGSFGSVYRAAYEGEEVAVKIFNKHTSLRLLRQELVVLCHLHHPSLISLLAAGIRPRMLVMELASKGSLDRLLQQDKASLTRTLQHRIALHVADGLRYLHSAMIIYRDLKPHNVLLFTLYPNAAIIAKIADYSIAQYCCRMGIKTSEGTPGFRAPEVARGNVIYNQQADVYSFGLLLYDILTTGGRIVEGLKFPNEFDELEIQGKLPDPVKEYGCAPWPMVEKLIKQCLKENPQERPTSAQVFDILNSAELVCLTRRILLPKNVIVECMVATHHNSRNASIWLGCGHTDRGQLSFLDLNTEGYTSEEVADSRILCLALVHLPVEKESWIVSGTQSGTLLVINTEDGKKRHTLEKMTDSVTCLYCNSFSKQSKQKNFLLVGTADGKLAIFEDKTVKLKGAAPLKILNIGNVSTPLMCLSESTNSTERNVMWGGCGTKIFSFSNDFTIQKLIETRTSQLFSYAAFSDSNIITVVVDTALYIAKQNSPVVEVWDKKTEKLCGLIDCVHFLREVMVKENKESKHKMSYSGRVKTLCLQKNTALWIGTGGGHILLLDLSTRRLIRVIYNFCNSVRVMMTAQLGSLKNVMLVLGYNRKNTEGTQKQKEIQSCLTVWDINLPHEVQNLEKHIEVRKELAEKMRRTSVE", "experiment": "LRRK2 G2019S kinase activity assay (LanthaScreen TR-FRET)", "type": "biochemical", "settings": "250 pM LRRK2 G2019S, 1.3 mM ATP, 3 h at 30° C.; n≥2 tests", "in_short": "(§1)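 TR-FRET measured phosphorylation of fluorescein-ERM LRRKtide by human LRRK2 residues 970–2527, wild-type or G2019S, detected with a terbium anti-phospho-LRRKtide antibody. The 520/495 nm ratio was normalized to uninhibited and inhibitor controls. IC50 came from a Hill fit, log-averaged over independent experiments.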"}, "[2]": {"experiment": "Rat B/P (brain disposition)", "type": "in vivo, male Sprague-Dawley rats", "settings": "for concentration at 1 h / Kp at 1 h / Kp uu at 1 h: male, Sprague-Dawley, time point 1.0 h; for Kp at 1 h / Kp uu at 1 h: brain/plasma; for Kp at 1 h: n = 3; for Kp uu at 1 h: po", "in_short": "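Male Sprague-Dawley rats (n=3, standard body weight) were used to assess brain disposition. Plasma and brain homogenates underwent protein precipitation with acetonitrile containing internal standard, then LC-MS/MS measurement using an optimized method. Compound levels were quantified against matrix-matched calibration standards, and brain Kp was calculated as total brain concentration divided by total plasma concentration.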"}, "[3]": {"experiment": "Free fraction in plasma (equilibrium dialysis)", "type": "in vitro ADME, male Sprague-Dawley rat", "settings": "rat plasma, 1 μM, 5 h at 37° C.", "in_short": "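Equilibrium dialysis (12-14 kDa membrane) of male Sprague-Dawley rat or female Gottingen minipig plasma, or rat brain homogenate diluted 1:4, against 100 mM sodium phosphate pH 7.4, compound at 1 μM nominal (≤0.5% DMSO), 5 h at 37 °C. LC/MS-MS quantification; percent free calculated, with dilution factor 4 for brain.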"}, "LRRK2 WT": {"biological_target": "T2, LRRK2 WT (Homo sapiens, UniProt Q5S007)", "T2 construct": "comprises residue 970 to 2527 of the full length human wild-type LRRK2 kinase; purchased Invitrogen (Life Technologies Corporation)", "T2 sequence (Q5S007 970-2527)": "as the sequence (Q5S007 970-2527 G2019S) above, with S1050G counted along it", "experiment": "LRRK2 wild-type kinase activity assay (LanthaScreen TR-FRET)", "type": "biochemical", "settings": "1 nM LRRK2 WT, 1.3 mM ATP, 3.5 h at 30° C.; n≥2 tests", "in_short": "as §1"}},
  "note": "Where two headings read alike, the source gives them in different places.",
  "data": [
    {"smiles": "[2H]C([2H])([2H])c1c2c(nn1C1CCOCC1)OCCCn1nc(Cl)c3cnc(nc31)N2", "note": "[Example 13, 8-Chloro-3-(methyl-d3)-2-(tetrahydro-2H-pyran-4-yl)-2,4,12,13-tetrahydro-11H-5,7-(azenometheno)dipyrazolo[3,4-b:5′,1′-g][1]oxa[4,6,8]triazacycloundecine]", "values": [
      {"measurement": "Selectivity Score", "setting": "[1]; S(1): % Ctrl < 1", "result": 0.002},
      {"measurement": "Number of Hits", "setting": "[1]; S(1): % Ctrl < 1, hit is LRRK2 WT", "result": 1},
      {"measurement": "Selectivity Score", "setting": "[1]; S(10): % Ctrl < 10", "result": 0.03},
      {"measurement": "Number of Hits", "setting": "[1]; S(10): % Ctrl < 10", "result": 12},
      {"measurement": "Selectivity Score", "setting": "[1]; S(35): % Ctrl < 35", "result": 0.094},
      {"measurement": "Number of Hits", "setting": "[1]; S(35): % Ctrl < 35", "result": 38},
      {"measurement": "IC50", "setting": "LRRK2 G2019S", "result": 2.5, "unit": "nM"},
      {"measurement": "extent of brain penetration, classified from rat brain Kp,uu values", "setting": "[2]; Table 8, brain free fraction from brain slice model", "result": "moderately high brain penetrant"},
      {"measurement": "concentration at 1 h", "setting": "[2]; brain, oral gavage 1 mg/kg, Table 8, read-out: Total brain concentration", "result": "130 ± 27", "unit": "ng/mL"},
      {"measurement": "concentration at 1 h", "setting": "[2]; brain, oral gavage 1 mg/kg, mean ± stdev, n = 3, read-out: Total brain concentration", "result": "130 ± 27", "unit": "ng/g"},
      {"measurement": "concentration at 1 h", "setting": "[2]; brain, oral gavage 3 mg/kg, Table 8, read-out: Total brain concentration", "result": "597 ± 169", "unit": "ng/mL"},
      {"measurement": "concentration at 1 h", "setting": "[2]; brain, oral gavage 3 mg/kg, mean ± stdev, n = 3, read-out: Total brain concentration", "result": "597 ± 169", "unit": "ng/g"},
      {"measurement": "concentration at 1 h", "setting": "[2]; brain, oral gavage 10 mg/kg, Table 8, read-out: Total brain concentration", "result": "2030 ± 462", "unit": "ng/mL"},
      {"measurement": "concentration at 1 h", "setting": "[2]; brain, oral gavage 10 mg/kg, mean ± stdev, n = 3, read-out: Total brain concentration", "result": "2030 ± 462", "unit": "ng/g"},
      {"measurement": "Kp at 1 h", "setting": "[2]; oral gavage 1 mg/kg, mean ± stdev", "result": "1.76 ± 0.04"},
      {"measurement": "Kp at 1 h", "setting": "[2]; oral gavage 3 mg/kg, mean ± stdev", "result": "1.74 ± 0.1"},
      {"measurement": "Kp at 1 h", "setting": "[2]; oral gavage 10 mg/kg, mean ± stdev", "result": "1.3 ± 0.22"},
      {"measurement": "Kp uu at 1 h", "setting": "[2]; 1 mg/kg, oral gavage 1 mg/kg, brain free fraction from rat brain slice model", "result": "0.54 ± 0.01"},
      {"measurement": "Kp uu at 1 h", "setting": "[2]; 1 mg/kg, oral gavage 1 mg/kg, fubrain from brain homogenate", "result": "0.38 ± 0.01"},
      {"measurement": "Kp uu at 1 h", "setting": "[2]; 3 mg/kg, oral gavage 3 mg/kg, brain free fraction from rat brain slice model", "result": "0.54 ± 0.03"},
      {"measurement": "Kp uu at 1 h", "setting": "[2]; 3 mg/kg, oral gavage 3 mg/kg, fubrain from brain homogenate", "result": "0.38 ± 0.02"},
      {"measurement": "Kp uu at 1 h", "setting": "[2]; 10 mg/kg, oral gavage 10 mg/kg, brain free fraction from rat brain slice model", "result": "0.4 ± 0.07"},
      {"measurement": "Kp uu at 1 h", "setting": "[2]; 10 mg/kg, oral gavage 10 mg/kg, fubrain from brain homogenate", "result": "0.28 ± 0.05"},
      {"measurement": "concentration at 1 h", "setting": "[2]; plasma, oral gavage 1 mg/kg, mean ± stdev, n = 3, read-out: Total plasma concentration", "result": "74 ± 17", "unit": "ng/mL"},
      {"measurement": "concentration at 1 h", "setting": "[2]; plasma, oral gavage 3 mg/kg, mean ± stdev, n = 3, read-out: Total plasma concentration", "result": "340 ± 78", "unit": "ng/mL"},
      {"measurement": "concentration at 1 h", "setting": "[2]; plasma, oral gavage 10 mg/kg, mean ± stdev, n = 3, read-out: Total plasma concentration", "result": "1640 ± 655", "unit": "ng/mL"},
      {"measurement": "fuplasma (% free)", "setting": "[3]", "result": 32.0, "unit": "% free"},
      {"measurement": "IC50", "setting": "LRRK2 WT", "result": 9.6, "unit": "nM"}
    ]}
  ]
}
